Reference: patent US20230032020A1, “SMALL-MOLECULE COVALENT INHIBITION OF RAL GTPASES” (THE TRUSTEES OF INDIANA UNIVERSITY, priority 2019, published 2023)
Residue numbers refer to the chain shown, from its start. Read-outs that look alike come from different tables or passages of the source.

Experiments:
[1] = target: T1, RalB (Homo sapiens, UniProt P11234); experiment: Rgl2-mediated guanine nucleotide exchange assay (BODIPY-FL-GDP fluorescence), RalB wild-type; type: biochemical; settings: for improvement in IC50 at 24 h compared to Compound 1: RalB WT
T1 construct: made in house; host or cells: E. coli BL21(DE3)
T1 sequence (P11234 12-185): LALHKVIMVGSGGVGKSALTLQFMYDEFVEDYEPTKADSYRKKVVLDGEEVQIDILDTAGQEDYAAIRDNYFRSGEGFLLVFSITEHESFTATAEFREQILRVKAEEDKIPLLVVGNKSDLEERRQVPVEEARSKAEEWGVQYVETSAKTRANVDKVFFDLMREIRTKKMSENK
Experimental: Fragment-based screening using a library of 89 sulfonyl fluoride compounds was carried out to explore this possibility. A fluorescence-based guanine nucleotide exchange assay was used to measure inhibition of Rgl2-mediated exchange of Ral-bound GDP with fluorescently-labelled boron-dipyrromethene fluorescent GDP (BODIPY-FL-GDP). The increase in fluorescence intensity of the BODIPY-FL group is measured at 30 s intervals.
(§1) A concentration-dependent exchange study then was carried out to obtain the concentration of compound required for 50% inhibition of Rgl2-mediated exchange, as illustrated in FIG. 1D. This was done by incubating RalB with varying concentrations of Compound 1 for 24 hours at a temperature of 4° C., prior to the initiation of nucleotide exchange by the addition of Rgl2 and BODIPY-FL-GDP. The rate constant was calculated by fitting a 3-parameter exponential function for each measurement. To determine percent inhibition, the fitting was also done for control DMSO samples and samples without Rgl2.
(§2) Exchange Assay: 10 μL of RalB (2 μM), RalA (2 μM), and Ras (0.8 μM) in an exchange assay buffer (100 mM NaCl, 10 mM MgCl2, 20 mM Tris pH 8, 0.01% IGEPAL) were added to a 384-well, black, round bottom, low volume, polystyrene plate (Corning, Corning, N.Y., Catalog Number: 4515) and incubated with 2 μL of varying concentrations of compounds in the exchange assay buffer supplemented with 20% v/v DMSO for 24 h (unless otherwise specified) at 4° C. After the incubation, 5 μL of RGL2 (1 μM), SOS (0.4 μM) or buffer was added. Finally, 3 μL of Bodipy-FL-GDP (1.67 μM for RalA/B, 1.0 μM for Ras) was added and the fluorescence was read immediately on an Envision Multilabel Plate Reader (PerkinElmer, Waltham, Mass.) using a filter set with excitation and emission wavelengths of 485 and 535 nm, respectively, for 40 min at 30 sec intervals.
(§3) The fluorescence increase over time was fitted to an exponential function:
(§4) Fluorescence Intensity=Initial Fluorescence+Extent of binding (1−e^−Rate×Time)
(§5) The rate constant of the exchange was calculated by fitting experimental values for Fluorescence Intensity and corresponding Time. The Initial Fluorescence was estimated from the initial reading of the fluorescence intensity from the experimental control sample without guanine exchange factor (GEF). The Extent of binding is the difference between the maximal fluorescence intensity of the DMSO control sample versus the initial fluorescence recorded for the No GEF control sample.
Percent Inhibition and compound concentration are experimental values.

[2] = target: T2, RalB Tyr82Phe mutant (Homo sapiens, UniProt P11234, Y82F); experiment: Rgl2-mediated guanine nucleotide exchange assay, RalB Tyr82Phe mutant; type: biochemical
T2 construct: made in house; host or cells: E. coli BL21(DE3)
T2 sequence (P11234 12-185 Y82F): T1 sequence (P11234 12-185) with Y71F
Experimental: as §1, with “To confirm that inhibition of RalB exchange by Rgl2 was due to covalent bond formation at Tyr-82, the nucleotide exchange study was repeated using RalB Tyr82Phe mutant. […] A” for “A”
as §2, §3, §4, §5
Percent Inhibition and compound concentration are experimental values. Maximum inhibition is set at 100 percent as no plateau were achieved. Minimum inhibition value was data-dependent and were mostly found to be near 0 percent. Due to the fact that the compounds were covalent inhibitors and not classical reversible inhibitors, Hillslope value was not constrained.

[3] = target: T3, RalA (Homo sapiens, UniProt P11233); experiment: Rgl2-mediated guanine nucleotide exchange assay, RalA; type: biochemical; settings: concentration not given
T3 construct: made in house; host or cells: E. coli BL21(DE3)
T3 sequence (P11233 1-178): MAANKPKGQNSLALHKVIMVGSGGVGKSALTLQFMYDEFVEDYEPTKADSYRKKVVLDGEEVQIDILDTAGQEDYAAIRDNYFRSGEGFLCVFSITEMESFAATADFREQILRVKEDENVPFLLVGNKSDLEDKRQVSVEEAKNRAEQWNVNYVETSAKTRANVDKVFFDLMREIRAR
Experimental: To further probe the contribution of individual amino acids within the binding site of Compound 1, the effect of the compound on the rate of nucleotide exchange was tested against two RalB mutants, Ser85Ala and Thr69Ala.
as §2, §3, §4
The rate constant of the exchange was calculated by fitting experimental values for Fluorescence Intensity and corresponding Time. […]

[4] = Compound stability assay in buffer; type: physicochemical
Experimental: Compound Stability Assay. 200 μM Compound 1 was incubated in a buffer containing 20 mM Tris pH 8.0, 100 mM NaCl, 10 mM MgCl2 at 4° C. for varying amounts time. After the incubation, the samples were centrifuged at 20,000×g for 10 min to remove precipitants prior to being injected into an Agilent EclipsePlus C18 RRHD column (Agilent, Santa Clara, Calif.) on an Agilent 1200 liquid chromatography system (Agilent, Santa Clara, Calif.), using a linear gradient from 100% Buffer A (H2O with 0.1% Formic Acid) to 70% Buffer B (acetonitrile with 0.1% Formic Acid), and the masses were detected on an Agilent 6520 Accurate Mass Q-TOF.

[5] = tested on: Pa03C pancreatic cancer cell; experiment: Pa03C pancreatic cancer cell growth in 3-D co-culture with fibroblasts; type: cell-based; settings: relative to media or DMSO
[6] = IC50 at 24 h (μM) RalB WT, 24 h incubation at 4° C.

Structure (SMILES) | IC50 [1, 6] [µM] | IC50 [2] [µM] | also measured
COc1cncc(NS(=O)(=O)c2ccc(S(=O)(=O)F)cc2)c1 [Compound 1] | 49.5 ± 2.3 | – | IC50 ([1]; IC50 at 6 h, Rgl2-mediated exchange of RalB, 6 h incubation at 4° C.): 153 ± 29.9 µM; IC50 ([2]; read-out: IC50 at 24 h (μM) RalB Tyr82Phe, 24 h incubation at 4° C., NI = No Inhibition): > 100 µM
COc1ncccc1NS(=O)(=O)c1ccc(S(=O)(=O)F)cc1 [Compound 2] | 23.1 ± 6.8 | – | improvement in IC50 at 24 h compared to Compound 1 [1]: 2 fold; IC50 at 24 h (μM) RalB Tyr82Phe ([2]; 24 h incubation at 4° C., NI = No Inhibition): no inhibition
O=S(=O)(F)c1ccc(S(=O)(=O)Nc2cccnc2O)cc1 [Compound 3] | 17 ± 7.7 | 79.3 ± 19 | –
O=S(=O)(F)c1ccc(S(=O)(=O)Nc2ncccc2Cl)cc1 [Compound 4] | 41.7 ± 8.5 | 215 ± 84.5 | –
O=S(=O)(F)c1ccc(S(=O)(=O)Nc2cccc(Cl)n2)cc1 [Compound 5] | 24.4 ± 4.9 | – | improvement in IC50 at 24 h compared to Compound 1 [1]: 2 fold
O=S(=O)(F)c1ccc(S(=O)(=O)Nc2cccc(F)n2)cc1 [Compound 6] | 51.5 ± 5.2 | – | –
O=S(=O)(F)c1ccc(S(=O)(=O)Nc2cncc(Cl)n2)cc1 [Compound 7] | 49.4 ± 3.5 | – | –
COc1ccc(NS(=O)(=O)c2ccc(S(=O)(=O)F)cc2)cc1 [Compound 9] | 60.3 ± 3 | 100 ± 11.1 | –
CS(=O)(=O)c1ccc(NS(=O)(=O)c2ccc(S(=O)(=O)F)cc2)cn1 [Compound 10] | 147 ± 42 | 238 ± 55.4 | –
COc1cccc(NS(=O)(=O)c2ccc(S(=O)(=O)F)cc2)c1 [Compound 11] | 26 ± 4.6 | 164 ± 42.3 | –
COc1cc(NS(=O)(=O)c2ccc(S(=O)(=O)F)cc2)ccn1 [Compound 12] | 146 ± 14.2 | – | –
CCc1ccc(NS(=O)(=O)c2ccc(S(=O)(=O)F)cc2)cn1 [Compound 13] | 164 ± 26 | – | –
CCc1cncc(NS(=O)(=O)c2ccc(S(=O)(=O)F)cc2)c1 [Compound 14] | 91.4 ± 2.9 | 167 ± 8.7 | –
CCOc1cncc(NS(=O)(=O)c2ccc(S(=O)(=O)F)cc2)c1 [Compound 15] | 85.5 ± 7.9 | 235 ± 167 | –
CC(C)Oc1cncc(NS(=O)(=O)c2ccc(S(=O)(=O)F)cc2)c1 [Compound 16] | 79.5 ± 2.3 | 333 ± 31 | –
COc1cc(Cl)nc(NS(=O)(=O)c2ccc(S(=O)(=O)F)cc2)c1 [Compound 21] | 24 ± 1 | 138 ± 34.2 | –
COc1cccc(NS(=O)(=O)c2ccc(S(=O)(=O)F)cc2)n1 [Compound 22] | 64 ± 4.1 | – | –
COc1ccc(Cl)c(NS(=O)(=O)c2ccc(S(=O)(=O)F)cc2)n1 [Compound 23] | 127 ± 11.7 | – | –
COc1ncccc1NS(=O)(=O)c1ccc(S(=O)(=O)F)c2c1CCCC2 [SOF-371] | – | – | inhibition of RalB exchange ([1]; 24 h incubation at 4° C.): inhibits RalA and Ral B exchange; inhibition of Y82F ([2]; 24 h incubation at 4° C.): inhibits Y82F; inhibition of RalA exchange [3]: inhibits RalA and Ral B exchange; stability relative to Compound 1 [4]: higher stability than Compound 1
COc1cc(F)cc(NS(=O)(=O)c2ccc(S(=O)(=O)F)c3c2OCCO3)c1 [SOF-531] | – | – | inhibition of Pa03C pancreatic cancer cell growth [5]: concentration-dependent inhibition
